Values of other authors in US5721209A, “Iron chelator and inhibitor of iron-mediated oxidant injury” (The Regents of the University of California, priority 1995, dated 1998).
Read-outs that look alike come from different tables or passages of the source.

Tests used:
[1] = test system: neuroblastoma cells; conditions: removal of iron; growth of normal cells not similarly affected
[2] = test system: ischemic myocardium; conditions: for prevention of reperfusion injury / myocardial infarct size: administered prior to reperfusion / prior to occurrence of the myocardial infarct
[3] = prior known iron chelator
[4] = according to Macham

## CC(=O)N(O)CCCCCNC(=O)CCC(=O)N(O)CCCCCNC(=O)CCC(=O)N(O)CCCCCN [deferoxamine]
[1]
  growth of neuroblastoma cells: negatively affected
[2]; administered at or after the onset of reperfusion
  prevention of reperfusion injury: ineffective
[2]
  prevention of reperfusion injury / myocardial infarct size: prevents injury and reduces myocardial infarct size
[2]; listed as Desferoxamine
  prevention of reperfusion injury / myocardial infarct size: effective

## O=C(O)CN(CCN(CC(=O)O)CC(=O)O)CC(=O)O [EDTA]
[3]
  prevention of (.cndot.OH) production by the Fenton reaction: do not prevent (.cndot.OH) production by the Fenton reaction

## mycobactin
[4]
  solubility: water insoluble
